{
  "source": "patent US9512425B2",
  "about": "“Inhibiting migration of cancer cells” (Cornell University, priority 2012, dated 2016)",
  "system": "intracellular Ca^2+",
  "assay": "Intracellular calcium measurements (Fura-2, ATP stimulation)",
  "type": "cell-based, human",
  "procedure": "MDA-control, MDA-miR-708, and MDA-miR-708-Nnat-mut cells were grown on coverslips and used 2-3 days after plating. Cells were loaded with […] Fura-2 (Molecular Probes), a membrane-permeable Ca^2+-indicator dye, at 37° C. for 30 min. Cells were then washed and incubated in HEPES-buffered Na^+-Ringer's solution (140 mM NaCl, 5 mM KCl, 10 mM HEPES, 2 mM CaCl2, and 1 mM MgCl2, pH 7.4). Individual vials (50 mg) of the acetoxymethyl derivative of Fura-2 (Invitrogen/Molecular Probes) were stored dry at 0° C. and reconstituted in dimethyl sulfoxide at a concentration of 10 mM for each experiment. At the concentrations used, dimethyl sulfoxide had no effect on any preparation in these studies. The coverslip with the dye-loaded cells was attached to the bottom of a flow-through superfusion chamber and mounted on the stage of an inverted epifluorescence microscope (Nikon Eclipse TE-2000). The cells in the chamber were superfused and maintained at 37° C. as previously described (O'Connor and Silver, 2007). Cells were first visualized under transmitted light with a Nikon CF Fluor oil immersion objective (X40/1.3 numerical aperture) before the start of the fluorescence measurements. Images were obtained at 340 nm and 380 nm excitation and at 510 nm emission wavelengths. The ratio was determined from the images at 340 nm and 380 nm. The imaging workstation was controlled with the MetaFluor software package (Universal Imaging). Cells in the experimental field of view were analyzed singularly and independently from their neighbors. Results are expressed as means±SEM, where n refers to the total number of individually analyzed cells.\nThe inventors hypothesized that miR-708-mediated targeting of Nnat may lead to impaired regulation of intracellular Ca^2+. This would explain the inhibitory effect on the migratory phenotype of metastatic tumor cells observed earlier (see, e.g., FIG. 1E). To test this hypothesis, MDA and MDA-miR-708 cells were loaded with the intracellular calcium indicator, Fura-2, and the 340/380 ratios were monitored in the absence and presence of exogenous ATP. ATP binds ATP receptors on the cell surface, resulting in the cleavage of PIP2 into IP3 and DAG. IP3 binds IP3 receptors on the endoplasmic reticulum membrane, and releases ionized calcium from the endoplasmic reticulum (Vandewalle et al., 1994), (Berridge et al., 2003; Swanson et al., 1998). Thus, ATP-stimulated calcium release from endoplasmic reticulum was used to evaluate the consequence of Nnat suppression by miR-708.",
  "data": [
    {"substance": "miR-708: microRNA, mature sequence 5'-AAGGAGCUUACAAUCUAGCUGGG-3' (SEQ ID NO: 2); expressed from lentiviral vector or used as synthetic precursor", "values": [
      {"measurement": "regulation of intracellular Ca^2+ after ATP", "setting": "MDA cells expressing miR-708 vs MDA", "result": "attenuated regulation"},
      {"measurement": "slope, initial rate of calcium regulation back to baseline (representative trace)", "setting": "MDA-miR-708 cells stimulated with ATP, control slope 0.72", "result": 0.3, "unit": "ratio/min"},
      {"measurement": "pre-ATP stimulation (basal) ratio", "setting": "MDA-miR-708 cells, mean±SEM", "result": "0.97±0.01"},
      {"measurement": "peak calcium response due to ATP stimulation (340/380 ratio)", "setting": "MDA-miR-708 cells, mean±SEM, n=107", "result": "1.77±0.06"},
      {"measurement": "initial rate of calcium regulation back to baseline", "setting": "MDA-miR-708 cells, n=105, control 0.52±0.03", "result": "0.33±0.02"}
    ]}
  ]
}
